Measurements: article PMC9855386, “Obtaining a Monoclonal Antibody against a Novel Prometryn-Like Hapten and Characterization of Its Selectivity for Triazine Herbicides” (Biosensors, 2022)

System: 7D4 mAb
Experiment: ic-ELISA optimal combination of coated antigen and antibody (Table S3)
Format: binding, mouse
Settings: prometryn 1000 ng/mL
Method: The ic-ELISA method was used to screen the best-performing fusion mouse sera. They were used to establish the standard curve of antibodies by detecting the supernatant of positive cells. The buffer required for ic-ELISA was the same as previously reported. The specific steps of the operation are as follows: (1) The coated antigen was added to the microplate by diluting it with the required coating solutions (CBS, pH 9.6, 0.05 mol/L). Each well contained 100 µL, which was incubated at 37 °C for three h before being washed three times with washing buffer (PBST, PBS containing 0.1% Tween-20). (2) With sample dilution buffer (PBSTG, PBST containing 0.1% gelatin), the standard prometryn sample and the antiserum/antibody from mice were diluted to the required concentration. The microplate was incubated for 30 min at 37 °C with 50 µL of diluted antiserum or antibody and standard samples of various concentrations. PBST was used three times to wash the dishes. (3) Then, 100 µL of PBSTG-diluent IgG HRP (labeled goat anti-mouse IgG with HRP) was added to each well. After 30 min at 37 °C, the plate was cleaned three times with PBST. (4) Each well was incubated for 15 min in the dark at 25 °C with 100 µL of TMB color developing solution. To stop the reaction, 50 µL of the hydrochloric acid solution was added to each well. The absorbance at OD450 nm was measured with a TECAN Infinite M200 PRO microplate reader from Männedorf, Switzerland.
The ic-ELISA method was used to determine the ideal antibody and antigen mix. The coating antigen and antibody concentration used in the experiment was 1 mg/mL. The dilution multiples of the coating were 1 × 10^3, 2 × 10^3, 4 × 10^3, and 8 × 10^3. The prometryn standard was 1000 ng/mL. The best concentration combination of antigen and antibody was selected to establish the standard curve of the antibody. Prometryn standards were diluted to 1000, 500, 250, 125, 62.5, 31.25, 15.625, 7.8125, 3.90625, and 0 ng/mL, with PBSTG for subsequent ic-ELISA experiments. The standard curve was determined by ic-ELISA. […] Each measured OD value in the curve is the average of three independent repeats. The 7D4 mAb’s inhibition rate was well linearly correlated with the prometryn concentration. […] The 7D4 mAb type was identified as IgG1 using a mouse antibody isotyping kit from Sigma®, St. Louis, MO, USA.

CSc1nc(NC(C)C)nc(NC(C)C)n1 [Prometryn, 2-methylthio-4,6-di(isopropylamino)-1,3,5-triazobenzene]
IR (inhibition rate) (dilution of immunogen 1×103, dilution of serum 1.6×104): 94%
IR (inhibition rate) (dilution of immunogen 1×103, dilution of serum 2×103): 97%
IR (inhibition rate) (dilution of immunogen 1×103, dilution of serum 3.2×104): 92%
IR (inhibition rate) (dilution of immunogen 1×103, dilution of serum 4×103): 98%
IR (inhibition rate) (dilution of immunogen 1×103, dilution of serum 8×103): 97%
IR (inhibition rate) (dilution of immunogen 2×103, dilution of serum 1.6×104): 92%
IR (inhibition rate) (dilution of immunogen 2×103, dilution of serum 2×103): 98%
IR (inhibition rate) (dilution of immunogen 2×103, dilution of serum 3.2×104): 85%
IR (inhibition rate) (dilution of immunogen 2×103, dilution of serum 4×103): 97%
IR (inhibition rate) (dilution of immunogen 2×103, dilution of serum 8×103): 96%
IR (inhibition rate) (dilution of immunogen 4×103, dilution of serum 1.6×104): 81%
IR (inhibition rate) (dilution of immunogen 4×103, dilution of serum 2×103): 97%
IR (inhibition rate) (dilution of immunogen 4×103, dilution of serum 3.2×104): 71%
IR (inhibition rate) (dilution of immunogen 4×103, dilution of serum 4×103): 95%
IR (inhibition rate) (dilution of immunogen 4×103, dilution of serum 8×103): 90%
IR (inhibition rate) (dilution of immunogen 8×103, dilution of serum 1.6×104): 67%
IR (inhibition rate) (dilution of immunogen 8×103, dilution of serum 2×103): 93%
IR (inhibition rate) (dilution of immunogen 8×103, dilution of serum 3.2×104): 55%
IR (inhibition rate) (dilution of immunogen 8×103, dilution of serum 4×103): 90%
IR (inhibition rate) (dilution of immunogen 8×103, dilution of serum 8×103): 82%
